One experiment concerns Colo320 cells. Description: Annexin-V-FITC/PI apoptosis induction assay (flow cytometry). It counts as cell-based, human. The following applies: for Cell death % Q1 / Early apoptosis % Q3 / Late apoptosis and necrosis % Q2: 3 h induction. As to the method: To gain further insights into the cytotoxic behavior of the compounds, apoptosis induction by lead compounds HL^1 and [Cu(L^2)Cl] was investigated by a flow cytometry analysis of multidrug-resistant Colo320 cells stained with Annexin-V-FITC and propidium iodide (PI).
Colo320 cells were treated at the indicated concentration of the drugs. The dual parametric dot plots that combine the Annexin-V (FL1) and PI (FL3) fluorescence show the viable cell population in the lower-left quadrant Annexin-V–/PI– (Q4), the early apoptotic cells in the lower-right quadrant Annexin-V+/PI– (Q3), and the late apoptotic and necrotic cells in the upper-right quadrant Annexin-V+/PI+ (Q2). […]
2.5.3. Mechanisms of cell death: assay for apoptosis induction
The assay was carried out for selected compounds using an Annexin V-FITC Apoptosis Detection
Kit (Cat. No. APOAF-50TST) from Sigma according to the manufacturer's instructions. The
concentration of the Colo320 cell suspension was adjusted to approximately 0.5 × 10^6 cells per
mL in RPMI medium and the cell suspension was distributed in 1 mL aliquots into a 24-well plate,
and then incubated overnight at 37 °C and 5% CO2. On the following day, the medium was
removed and replaced by 1 mL RPMI medium containing the compounds except the control
samples. Colo320 cells were incubated in the presence of the compounds at 4 and 8 μM (HL1), or
0.25 and 0.50 μM (Cu(HL2)Cl2) in the 24-well plate at 37 °C for 3 h, and 12H-
controls. After the incubation period the samples were washed with PBS and fresh RPMI medium
was added to the samples. The cells were incubated overnight at 37 °C and 5% CO2. The next day,
200 μL 0.25% Trypsin (Trypsin-Versen) was added to the samples until cells appeared detached
followed by the addition of 400 μL of RPMI medium supplemented with 10% bovine serum. The
cells were collected in Eppendorf tubes and centrifuged at 2000 g for 2 min. The harvested cells
were resuspended in fresh serum free RPMI medium culture medium. After this step, the apoptosis
assay was carried out according to the instructions of the manufacturer. The fluorescence was
analyzed immediately using a ParTec CyFlow flow cytometer (Partec GmbH, Münster, Germany). […]

A further experiment concerns SW480 cells. In words: Cell cycle distribution by flow cytometry. The format is cell-based, human. The following applies: 24 h. The text has this: […] TEXT PRINTED IN THE PICTURE: (A) no label printed: S: 27.7% | (B) no label printed: S: 33.8% | (C) no label printed: S: 44.0% | (D) no label printed: S: 46.5% DOUBTS OF THE COPYIST ABOUT THIS PICTURE: No substance labels are printed in the picture, only the panel letters A-D. / The phase label "S" is printed only in panel A. Applying it to the percentages in panels B, C and D is assumed from where the marker line sits.
In general terms: A flow cytometer gives signals particle by particle.

Molecules are shown by their SMILES. “And” between values parts separate entries of the source, which are not always exact repeats. Identical values can stand only once.

For the molecule `Cc1cc(NC(=S)NN=Cc2ccccn2)cc(C)c1O` [HL^1, 2-Formylpyridine 4-(4-hydroxy-3,5-dimethylphenyl)thiosemicarbazone], in the experiment with Colo320 cells (4 µM), the “Cell death % Q1” value worked out at 2.79%; the “Early apoptosis % Q3” value is 6.19%; the “Late apoptosis and necrosis % Q2” value is 12.4%. Moreover, in the experiment on Colo320 cells (8 µM), the “Cell death % Q1” value is 1.57%; the “Early apoptosis % Q3” value worked out at 7.65%; the “Late apoptosis and necrosis % Q2” value was determined as 7.0%. Further, the viability at 4 µM in the experiment on Colo320 cells (Homo sapiens, COLO 320, 4 μM, read-out: viable cell population Q4) turned out to be 78.6%. Moreover, in the experiment with SW480 cells (1 µM), the G1 phase cells was 48.5%, the G2 phase cells stood at 19.4% and the S phase cells was 32.0%. Besides, in the experiment with SW480 cells (10 µM), the G0/G1 phase cells was 49.2% and 49.2 ± 1.6%; the G2/M phase cells was 12.3% and 12.3 ± 4.4%; the S phase cells is recorded as 37.1 ± 4.7%.

Values taken from PMC8335727 (Inorganic Chemistry, 2021).
